Assay results: patent US20260209247A1, “Substituted Tricyclic Compounds” (Lupin Limited, priority 2019, published 2026)

system: pERK after EGF stimulation in DLD1 cells; experiment: ERK phosphorylation assay (alphascreen pERK); assay type: cell-based; settings: Homo sapiens, DLD-1, 2 h compound, 200 ng/ml hEGF for 5 minutes, read-out: ERK phosphorylation inhibition IC50
Description: Compounds were tested for their ability to inhibit pERK after EGF stimulation in DLD1 cells. Cells were seeded at 0.2 million cells per well in 96 well cell binding tissue culture plate in 100 μL complete media and were allowed to settle overnight (16 to 20 h). On the following day, cells were treated with various concentrations of test compounds for 2 h followed by stimulation with 200 ng/ml hEGF (diluted in PBS) for 5 minutes. Cells were then washed once with PBS and lysed in freshly prepared lysis buffer (provided with alphascreen surefire ERK1/2 p-T202/Y204 assay kit, cat no: TGRESB10K, Perkin Elmer). Lysis was carried out in plate shaker for 10-15 mins. Lysate was transferred to […] white opti-plate (Perkin Elmer) and alphascreen for pERK was carried out as per manufacturer's instructions. Plate was read after 2 h incubation in plate shaker at […] 300 RPM, 25-28° C. The difference between the unstimulated and stimulated Vehicle control is considered as 100% ERK phosphorylation, and % inhibition of compounds is calculated accordingly.

Row | SMILES | IC50 [nM]
1 | Cc1nc(NC(C)c2cccc(C(O)(CO)C(F)(F)F)c2F)c2cc3c(cc2n1)OC(C)(C)C(=O)N3C (racemic) [Compound 22, 4-(((R&S)-1-(2-Fluoro-3-((R&S)-1,1,1-trifluoro-2,3-dihydroxypropan-2-yl)phenyl)ethyl)amino)-2,6,8,8-tetramethyl-6H-[1,4]oxazino[3,2-g]quinazolin-7(8H)-one] | 201 to 500
2 | CO[C@]1(C)C(=O)N(C)c2cc3c(N[C@H](C)c4cccc(C(F)(F)[C@](C)(O)CO)c4F)nc(C)nc3cc21 (racemic) [Compound 103, (S/R)-4-(((R/S)-1-(3-((R/S)-1,1-difluoro-2,3-dihydroxy-2-methylpropyl)-2-fluorophenyl)ethyl)amino)-8-methoxy-2,6,8-trimethyl-6,8-dihydro-7H-pyrrolo[2,3-g]quinazolin-7-one] | 201 to 500
3 | Cc1nc(N[C@H](C)c2cccc(C(F)(F)[C@@](C)(O)CN(C)C)c2F)c2cc3c(cc2n1)C(C)(C)C(=O)N3C (racemic) [Compound 129b, 4-(((R)-1-(3-((S/R)-3-(dimethylamino)-1,1-difluoro-2-hydroxy-2-methylpropyl)-2-fluorophenyl)ethyl)amino)-2,6,8,8-tetramethyl-6,8-dihydro-7H-pyrrolo[2,3-g]quinazolin-7-one] | 1 to 200
4 | CNC[C@](C)(O)C(F)(F)c1cccc([C@@H](C)Nc2nc(C)nc3cc4c(cc23)N(C)C(=O)C4(C)C)c1F (racemic) [Compound 130b, 4-(((R)-1-(3-((S/R)-1,1-difluoro-2-hydroxy-2-methyl-3-(methylamino)propyl)-2-fluorophenyl)ethyl)amino)-2,6,8,8-tetramethyl-6,8-dihydro-7H-pyrrolo[2,3-g]quinazolin-7-one] | 1 to 200
5 | Cc1nc(N[C@H](C)c2cccc(C3CCCNC3)c2F)c2cc3c(cc2n1)C(C)(C)C(=O)N3C (mixture of isomers) [Compound 133, (R & S)-4-(((R)-1-(2-fluoro-3-((R & S)-piperidin-3-yl)phenyl)ethyl)amino)-2,6,8,8-tetramethyl-6,8-dihydro-7H-pyrrolo[2,3-g]quinazolin-7-one] | 201 to 500
6 | COC1(C)C(=O)N(C)c2cc3nc(C)nc(N[C@H](C)c4cc(N)cc(C(F)(F)F)c4)c3cc21 (mixture of isomers) [Compound 137, 4—(((R)-1-(3-amino-5-(trifluoromethyl)phenyl)ethyl)amino)-6-methoxy-2,6,8-trimethyl-6,8-dihydro-7H-pyrrolo[3,2-g]quinazolin-7-one] | 1 to 200
7 | Cc1nc(NC(C)c2cc(N)cc(C(F)F)c2)c2cc3c(cc2n1)OCC(=O)N3C (single isomer, unassigned) [Compound 5, (R/S)-4-((1-(3-Amino-5-(difluoromethyl)phenyl)ethyl)amino)-2,6-dimethyl-6H-[1,4]oxazino[3,2-g]quinazolin-7(8H)-one] | 1 to 200
8 | Cc1nc(N[C@H](C)c2cccc([C@@](O)(CO)C(F)(F)F)c2F)c2cc3c(cc2n1)OC(C)(C)C(=O)N3C (single isomer, unassigned) [Compound 22b, 4-(((R/S)-1-(2-fluoro-3-((R/S)-1,1,1-trifluoro-2,3-dihydroxypropan-2-yl)phenyl)ethyl)amino)-2,6,8,8-tetramethyl-6H-[1,4]oxazino[3,2-g]quinazolin-7(8H)-one] | 201 to 500
9 | Cc1nc(N[C@H](C)c2cccc(C(F)(F)C(C)(C)O)c2F)c2cc3c(cc2n1)O[C@@H](C(C)C)C(=O)N3C (single isomer, unassigned) [Compound 32a] | 1 to 200
10 | Cc1nc(N[C@H](C)c2cc(N)cc(C(F)(F)F)c2)c2cc3c(cc2n1)OCCN3CC1CCOC1 (single isomer, unassigned) [Compound 43] | 1 to 200
11 | Cc1nc(NC(C)c2cc(N)cc(C(F)F)c2)c2cc3c(cc2n1)C(C)(C)C(=O)N3C (single isomer, unassigned) [Compound 69, (R/S)-4-((1-(3-amino-5-(difluoromethyl)phenyl)ethyl)amino)-2,6,8,8-tetramethyl-6H-pyrrolo[2,3-g]quinazolin-7(8H)-one] | 1 to 200
12 | Cc1nc(N[C@H](C)c2cccc(C(F)(F)[C@](C)(O)CO)c2F)c2cc3c(cc2n1)C(C)(C)C(=O)N3C (single isomer, unassigned) [Compound 76b] | 201 to 500
13 | COC1(C)C(=O)N(C)c2cc3nc(C)nc(N[C@H](C)c4cccc(C(F)(F)C(C)(C)O)c4F)c3cc21 (single isomer, unassigned) [Compound 96b] | 1 to 200
14 | Cc1nc(N[C@H](C)c2cccc(C(F)(F)C(C)(C)O)c2F)c2cc3c(cc2n1)C(C)(F)C(=O)N3C (single isomer, unassigned) [Compound 116a] | 201 to 500
15 | Cc1nc(N[C@H](C)c2cccc(C(F)(F)C(C)(C)O)c2F)c2cc3c(cc2n1)[C@](C)(F)C(=O)N3C (single isomer, unassigned) [Compound 116b] | 1 to 200
16 | COCCC1(C)C(=O)N(C)c2cc3c(N[C@H](C)c4cccc(C(F)(F)C(C)(C)O)c4F)nc(C)nc3cc21 (single isomer, unassigned) [Compound 123b] | 1 to 200

Row | SMILES | IC50 [nM]
17 | COC1(C(F)(F)F)C(=O)N(C)c2cc3c(N[C@H](C)c4cccc(C(F)(F)C(C)(C)O)c4F)nc(C)nc3cc21 (single isomer, unassigned) [Compound 125a] | 201 to 500
18 | CO[C@]1(C(F)(F)F)C(=O)N(C)c2cc3c(N[C@H](C)c4cccc(C(F)(F)C(C)(C)O)c4F)nc(C)nc3cc21 (single isomer, unassigned) [Compound 125b] | 1 to 200
19 | CCC1(OC)C(=O)N(C)c2cc3c(N[C@H](C)c4cccc(C(F)(F)C(C)(C)O)c4F)nc(C)nc3cc21 (single isomer, unassigned) [Compound 126a] | 1 to 200
20 | CC[C@@]1(OC)C(=O)N(C)c2cc3c(N[C@H](C)c4cccc(C(F)(F)C(C)(C)O)c4F)nc(C)nc3cc21 (single isomer, unassigned) [Compound 126b] | 201 to 500
21 | COCC(C)(O)C(F)(F)c1cccc([C@@H](C)Nc2nc(C)nc3cc4c(cc23)N(C)C(=O)C4(C)C)c1F (single isomer, unassigned) [Compound 127a] | 201 to 500
22 | COCCC1(OC)C(=O)N(C)c2cc3c(N[C@H](C)c4cccc(C(F)(F)C(C)(C)O)c4F)nc(C)nc3cc21 (single isomer, unassigned) [Compound 132a] | 1 to 200
23 | Cc1nc(NC(C)c2cccc(C(F)(F)F)c2F)c2cc3c(cc2n1)C(C)(C)C(=O)N3C (single isomer, unassigned) [Compound 134, (R/S)-4-((1-(2-fluoro-3-(trifluoromethyl)phenyl)ethyl)amino)-2,6,8,8-tetramethyl-6,8-dihydro-7H-pyrrolo[2,3-g]quinazolin-7-one] | 201 to 500
24 | Cc1nc(N[C@H](C)c2cccc(C(F)(F)C(C)(C)O)c2F)c2cc3c(cc2n1)OCC(=O)N3C [Compound 3, (R)-4-((1-(3-(1,1-difluoro-2-hydroxy-2-methylpropyl)-2-fluorophenyl)ethyl)amino)-2,6-dimethyl-6H-[1,4]oxazino[3,2-g]quinazolin-7(8H)-one] | 201 to 500
25 | CCc1nc(N[C@H](C)c2cc(N)cc(C(F)(F)F)c2)c2cc3c(cc2n1)OCC(=O)N3C [Compound 14, (R)-4-((1-(3-amino-5-(trifluoromethyl)phenyl)ethyl)amino)-2-ethyl-6-methyl-6H-[1,4]oxazino[3,2-g]quinazolin-7(8H)-one] | 1 to 200
26 | Cc1nc(N[C@H](C)c2cccc(C(F)(F)C(C)(C)O)c2F)c2cc3c(cc2n1)OC(C)(C)C(N1CCOCC1)=N3 [Compound 26, (R)-1,1-Difluoro-1-(2-fluoro-3-(1-((2,8,8-trimethyl-7-morpholino-8H [1,4]oxazino[3,2-g]quinazolin-4-yl)amino)ethyl)phenyl)-2-methylpropan-2-ol] | 201 to 500
27 | Cc1nc(N[C@H](C)c2cccc(C(F)(F)C(C)(C)O)c2F)c2cc3c(cc2n1)OC(C)(C)C(=O)N3C [Compound 33, (R)-4-((1-(3-(1,1-Difluoro-2-hydroxy-2-methylpropyl)-2-fluorophenyl)ethyl)amino)-2,6,8,8-tetramethyl-6H-[1,4]oxazino[3,2-g]quinazolin-7(8H)-one] | 1 to 200
28 | Cc1nc(N[C@H](C)c2cccc(C(F)(F)C(C)(C)O)c2F)c2cc3c(cc2n1)n(C)c(=O)c(=O)n3C [Compound 40, (R)-4-((1-(3-(1,1-Difluoro-2-hydroxy-2-methylpropyl)-2-fluorophenyl)ethyl)amino)-2,6,9-trimethyl-6,9-dihydropyrazino[2,3-g]quinazoline-7,8-dione] | 201 to 500
29 | CCN1C(=O)C(C)(C)Oc2cc3nc(C)nc(N[C@H](C)c4cccc(C(F)(F)C(C)(C)O)c4F)c3cc21 [Compound 41, (R)-4-((1-(3-(1,1-difluoro-2-hydroxy-2-methylpropyl)-2-fluorophenyl)ethyl)amino)-6-ethyl-2,8,8-trimethyl-6H-[1,4]oxazino[3,2-g]quinazolin-7(8H)-one] | 201 to 500
30 | Cc1nc(N[C@H](C)c2cccc(C(F)(F)C(C)(C)O)c2)c2cc3c(cc2n1)OC(C)(C)C(=O)N3C [Compound 57, (R)-4-((1-(3-(1,1-difluoro-2-hydroxy-2-methylpropyl)phenyl)ethyl)amino)-2,6,8,8-tetramethyl-6H-[1,4]oxazino[3,2-g]quinazolin-7(8H)-one] | 1 to 200
31 | Cc1nc(N[C@H](C)c2cccc(C(F)(F)C(C)(C)O)c2F)c2cc3c(cc2n1)C(C)(C)C(=O)N3C1CC1 [Compound 65, (R)-6-cyclopropyl-4-((1-(3-(1,1-difluoro-2-hydroxy-2-methylpropyl)-2-fluorophenyl)ethyl)amino)-2,8,8-trimethyl-6,8-dihydro-7H-pyrrolo[2,3-g]quinazolin-7-one] | 1 to 200
